Earlier results, collected in patent publication US7208285B2 (priority 2001, dated 2007).

Biological target: BoNT/A (Clostridium botulinum, UniProt P0DPI1)
Sequence (P0DPI1 whole entry, looked up): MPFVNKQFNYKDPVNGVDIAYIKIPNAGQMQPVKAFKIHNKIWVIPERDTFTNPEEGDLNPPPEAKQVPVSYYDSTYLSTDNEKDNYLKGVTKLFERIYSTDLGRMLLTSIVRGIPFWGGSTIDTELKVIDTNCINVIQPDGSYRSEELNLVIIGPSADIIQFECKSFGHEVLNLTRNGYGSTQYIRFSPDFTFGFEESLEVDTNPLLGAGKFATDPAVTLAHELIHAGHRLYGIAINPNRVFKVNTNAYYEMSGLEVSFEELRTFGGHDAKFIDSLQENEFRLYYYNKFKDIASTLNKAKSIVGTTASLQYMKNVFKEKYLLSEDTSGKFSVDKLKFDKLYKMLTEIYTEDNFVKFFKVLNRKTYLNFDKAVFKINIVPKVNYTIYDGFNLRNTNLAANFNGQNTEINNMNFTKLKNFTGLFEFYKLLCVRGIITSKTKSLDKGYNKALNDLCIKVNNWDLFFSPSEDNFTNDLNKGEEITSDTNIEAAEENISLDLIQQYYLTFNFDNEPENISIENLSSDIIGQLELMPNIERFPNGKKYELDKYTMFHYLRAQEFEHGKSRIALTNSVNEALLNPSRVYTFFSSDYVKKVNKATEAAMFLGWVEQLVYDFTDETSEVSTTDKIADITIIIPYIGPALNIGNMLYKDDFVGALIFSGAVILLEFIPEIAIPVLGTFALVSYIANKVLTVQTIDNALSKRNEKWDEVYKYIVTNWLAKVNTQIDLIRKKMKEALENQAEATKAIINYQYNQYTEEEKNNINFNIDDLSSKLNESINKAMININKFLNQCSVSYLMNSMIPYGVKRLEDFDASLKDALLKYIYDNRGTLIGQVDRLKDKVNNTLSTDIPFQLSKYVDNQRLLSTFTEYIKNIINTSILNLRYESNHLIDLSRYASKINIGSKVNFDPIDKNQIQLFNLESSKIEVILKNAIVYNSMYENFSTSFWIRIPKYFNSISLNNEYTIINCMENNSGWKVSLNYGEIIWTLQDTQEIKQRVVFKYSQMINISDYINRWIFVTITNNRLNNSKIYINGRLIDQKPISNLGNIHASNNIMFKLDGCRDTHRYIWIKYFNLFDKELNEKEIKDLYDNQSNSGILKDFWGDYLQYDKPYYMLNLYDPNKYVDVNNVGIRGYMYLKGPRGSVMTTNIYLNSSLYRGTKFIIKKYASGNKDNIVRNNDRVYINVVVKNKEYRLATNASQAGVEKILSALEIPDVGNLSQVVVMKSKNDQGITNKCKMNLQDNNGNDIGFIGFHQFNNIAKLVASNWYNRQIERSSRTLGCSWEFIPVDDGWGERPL

Row | Sequence | Relative Rate | relative rate of proteolysis
1 | SNKTRIDEAAQRATKML [Peptide N10A] | 0.06 | 
2 | SNKTRIDEANARATKML [Peptide Q11A] | 0.19 | 0.19
3 | SNKTRIDEANBRATKML [Peptide Q11B] | 0.25 | 0.25
4 | SNKTRIDEANNRATKML [Peptide Q11N] | 0.66 | 0.66
5 | SNKTRIDEANQRABKML [Peptide T14B] | 1.20 | 1.20
6 | SNKTRIDEANQRASKML [Peptide T14S] | 0.26 | 0.26
7 | SNKTRIDEANQRATAML [Peptide K15A] | 0.12 | 0.12
8 | SNKTRIDEANQRATK [[1–15]] | 0.03 | 
9 | SNKTRIDEANQRATKAL [Peptide M16A] | 0.38 | 0.38
10 | SNKTRIDEANQRATKML [[1–17]] | 1.00 | 
11 | SNKTRIDEANQRATKXL [Peptide M16X] | 1.20 | 1.20
12 | SNKTRIDEANQRBTKML [Peptide A13B] | 0.79 | 0.79
13 | SNKTRIDEBNQRATKML [Peptide A9B] | 0.38 | 0.38
14 | SNKTRIDQANQRATKML [Peptide E8Q] | 2.08 | 2.08
15 | SNKTRINEANQRATKML [Peptide D7N] | 0.23 | 0.23
16 | SNKTRTDEANQRATKM [[1–16]] | 1.17 | 
